Measured values from PMC5217682, “Galactomannan Catabolism Conferred by a Polysaccharide Utilization Locus of Bacteroides ovatus” (The Journal of Biological Chemistry, 2016).

Biological target: T1, BoMan26B (Bacteroides ovatus, UniProt A0ABU3IS29)
T1 construct: gene RO706_12620; residues 1-19 (lipoprotein signal) deleted; His tag kept; expressed in E. coli BL21(DE3); 347 residues, 39,870 Da with tag
T1 sequence (A0ABU3IS29 20-360): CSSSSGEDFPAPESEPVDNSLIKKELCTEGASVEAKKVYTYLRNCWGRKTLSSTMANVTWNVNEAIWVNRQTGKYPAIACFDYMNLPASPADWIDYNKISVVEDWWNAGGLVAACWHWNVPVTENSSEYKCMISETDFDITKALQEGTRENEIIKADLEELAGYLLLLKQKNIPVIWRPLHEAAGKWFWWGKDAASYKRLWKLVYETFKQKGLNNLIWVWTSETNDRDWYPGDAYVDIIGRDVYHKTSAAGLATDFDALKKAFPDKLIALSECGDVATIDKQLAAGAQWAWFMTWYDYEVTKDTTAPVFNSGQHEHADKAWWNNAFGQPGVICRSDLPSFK
Assay: hydrolysis by HPAEC-PAD
Format: biochemical
Conditions: […] substrate, […] potassium phosphate pH […] °C

**Q.** Which “hydrolysis by HPAEC-PAD” value does the source give for `OC[C@H]1O[C@@H](O[C@H]2[C@H](O)[C@H](O)[C@H](O[C@H]3[C@H](O)[C@H](O)[C@H](O[C@H]4[C@H](O)[C@H](O)[C@H](O[C@H]5[C@H](O)[C@H](O)C(O)O[C@@H]5CO)O[C@@H]4CO)O[C@@H]3CO)O[C@@H]2CO)[C@@H](O)[C@@H](O)[C@@H]1O` (stereo partly shown) [M5, mannopentaose] here?
**A.** it hydrolyzed all tested manno oligo- and polysaccharides (M3–M6
